Results published in US10758534B2 (Vertex Pharmaceuticals Incorporated, priority 2014, dated 2020).

Target: T1, F508del (Homo sapiens, UniProt P13569, DEL508-508)
T1 construct: expressed in transfected cells
Assay: Protocol 2: FRET membrane potential optical assay (VIPR), identification of correction compounds
Assay type: cell-based
Details: Table 3; compounds of Table 1 as modulators of CFTR activity; protocol not stated
Procedure, shortened: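 Mouse NIH3T3 cells, stable F508del; cpd 16 hrs, 37° C., serum-free; pos ctrl 27° C. 16 hrs. Rinse in Krebs Ringers, dye load, then add 10 μM forskolin + 20 μM genistein with Cl^−-free (gluconate) medium; depolarization by FRET voltage dyes.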

T1 sequence (P13569 with tags, fused parts or gaps DEL508-508): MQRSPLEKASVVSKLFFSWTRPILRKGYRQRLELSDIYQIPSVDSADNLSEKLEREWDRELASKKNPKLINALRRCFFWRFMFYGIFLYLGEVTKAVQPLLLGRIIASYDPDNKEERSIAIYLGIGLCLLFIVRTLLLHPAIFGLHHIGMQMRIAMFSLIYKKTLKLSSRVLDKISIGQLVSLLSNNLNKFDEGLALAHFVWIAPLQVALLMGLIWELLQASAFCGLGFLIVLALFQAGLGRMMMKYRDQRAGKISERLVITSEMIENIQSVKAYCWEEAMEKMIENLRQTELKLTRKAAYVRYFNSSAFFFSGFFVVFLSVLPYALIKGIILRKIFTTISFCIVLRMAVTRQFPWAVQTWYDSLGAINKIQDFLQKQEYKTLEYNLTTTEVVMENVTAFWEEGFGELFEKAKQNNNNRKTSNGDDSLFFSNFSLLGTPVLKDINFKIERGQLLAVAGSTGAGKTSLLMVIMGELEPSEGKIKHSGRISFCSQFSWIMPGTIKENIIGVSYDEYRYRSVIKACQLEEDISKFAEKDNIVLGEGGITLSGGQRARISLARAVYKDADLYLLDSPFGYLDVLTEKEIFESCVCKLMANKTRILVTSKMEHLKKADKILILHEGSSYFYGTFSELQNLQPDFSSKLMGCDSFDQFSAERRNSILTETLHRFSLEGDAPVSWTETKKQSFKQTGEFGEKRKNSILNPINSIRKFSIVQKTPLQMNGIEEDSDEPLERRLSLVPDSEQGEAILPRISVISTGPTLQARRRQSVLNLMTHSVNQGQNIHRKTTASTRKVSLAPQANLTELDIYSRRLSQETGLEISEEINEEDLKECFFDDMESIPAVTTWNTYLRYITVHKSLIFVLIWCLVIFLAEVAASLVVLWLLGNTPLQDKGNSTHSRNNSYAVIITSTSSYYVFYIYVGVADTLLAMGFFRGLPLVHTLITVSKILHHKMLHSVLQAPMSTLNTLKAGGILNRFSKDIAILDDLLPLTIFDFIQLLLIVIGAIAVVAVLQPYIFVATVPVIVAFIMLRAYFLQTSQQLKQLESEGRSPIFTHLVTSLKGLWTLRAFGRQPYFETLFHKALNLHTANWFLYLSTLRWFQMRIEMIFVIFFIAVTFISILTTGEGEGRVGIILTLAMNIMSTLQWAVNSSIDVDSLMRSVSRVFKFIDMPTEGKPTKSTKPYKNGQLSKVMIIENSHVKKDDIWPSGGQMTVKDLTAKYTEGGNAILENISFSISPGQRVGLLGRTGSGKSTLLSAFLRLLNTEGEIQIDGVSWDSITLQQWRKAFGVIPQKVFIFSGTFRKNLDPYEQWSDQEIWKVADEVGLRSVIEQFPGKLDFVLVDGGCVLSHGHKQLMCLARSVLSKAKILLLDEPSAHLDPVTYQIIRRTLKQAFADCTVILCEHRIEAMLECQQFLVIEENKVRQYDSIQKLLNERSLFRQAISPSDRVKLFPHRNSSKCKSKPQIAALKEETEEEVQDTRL

Q: `COc1cccnc1S(=O)(=O)NC(=O)c1cc(C(C)(C)C)nn1Cc1c(C)cc(C)cc1C` [Compound 44, 5-tert-butyl-N-[(3-methoxy-2-pyridyl)sulfonyl]-2-[(2,4,6-trimethylphenyl)methyl]pyrazole-3-carboxamide] was tested. Which EC30 did it give?
A: Its EC30 is “++ (“++” means between 3 uM and 10 uM)”.

Q: With `Cc1cc(C)c(Cn2nc(C(C)(C)C)cc2C(=O)NS(=O)(=O)c2ccccc2)c(C)c1` [Compound 45, N-(benzenesulfonyl)-5-tert-butyl-2-[(2,4,6-trimethylphenyl)methyl]pyrazole-3-carboxamide] as the compound, how does the EC30 read?
A: The EC30 was “+++ (“+++” means <3 uM)”.

Q: With `CC(C)(C)c1ccc(C(=O)NS(=O)(=O)c2cccc(N)c2)c(-c2ccc(F)cc2)n1` [Compound 46, N-(3-aminophenyl)sulfonyl-6-tert-butyl-2-(4-fluorophenyl)pyridine-3-carboxamide] as the compound, how does the EC30 read?
A: Its EC30 is “++ (“++” means between 3 uM and 10 uM)”.

Q: How did the EC30 turn out when `Cc1cc(C)c(Oc2nc(C(C)(C)C)ccc2C(=O)NS(=O)(=O)c2cccc(O)c2)c(C)c1` [Compound 47, 6-tert-butyl-N-(3-hydroxyphenyl)sulfonyl-2-(2,4,6-trimethylphenoxy)pyridine-3-carboxamide] was run?
A: Its EC30 is “+++ (“+++” means <3 uM)”.

Q: For `Cc1cc(C)c(CN2Cc3ccccc3C2C(=O)NS(=O)(=O)c2ccccn2)c(C)c1` (stereo not drawn) [Compound 48, N-(2-pyridylsulfonyl)-2-[(2,4,6-trimethylphenyl)methyl]isoindoline-1-carboxamide], which EC30 is on record?
A: Its EC30 is “++ (“++” means between 3 uM and 10 uM)”.

Q: `COc1ccc(-c2cc(C(=O)NS(=O)(=O)c3ccccc3)n(Cc3c(C)cccc3C)n2)cc1` [Compound 49, N-(benzenesulfonyl)-2-[(2,6-dimethylphenyl)methyl]-5-(4-methoxyphenyl)pyrazole-3-carboxamide] was tested. Which EC30 did it give?
A: Its EC30 is “+++ (“+++” means <3 uM)”.

Q: `CCc1cccc(S(=O)(=O)NC(=O)c2ccc(C(C)(C)C)nc2-c2ccc(C)cc2)c1` [Compound 50, 6-tert-butyl-N-(3-ethylphenyl)sulfonyl-2-(p-tolyl)pyridine-3-carboxamide] was tested. Which EC30 did it give?
A: Its EC30 is “+++ (“+++” means <3 uM)”.

Q: How did the EC30 turn out when `Cc1cc(C)c(Oc2nc(C(C)(C)C)ccc2C(=O)NS(=O)(=O)c2ccc[nH]c2=O)c(C)c1` [Compound 51, 6-tert-butyl-N-[(2-oxo-1H-pyridin-3-yl)sulfonyl]-2-(2,4,6-trimethylphenoxy)pyridine-3-carboxamide] was run?
A: The EC30 was “+++ (“+++” means <3 uM)”.

Q: `Cc1cc(C)cc(-c2nc(C(C)(C)C)ccc2C(=O)NS(=O)(=O)c2cccc(N)c2)c1` [Compound 52, N-(3-aminophenyl)sulfonyl-6-tert-butyl-2-(3,5-dimethylphenyl)pyridine-3-carboxamide] was tested. Which EC30 did it give?
A: Its EC30 is “+++ (“+++” means <3 uM)”.

Q: For `Cc1cc(C)c(Oc2nc(C3CC3)cc(C(F)(F)F)c2C(=O)NS(=O)(=O)c2cccc(N)n2)c(C)c1` [Compound 54, N-[(6-amino-2-pyridyl)sulfonyl]-6-cyclopropyl-4-(trifluoromethyl)-2-(2,4,6-trimethylphenoxy)pyridine-3-carboxamide], which EC30 is on record?
A: The EC30 was “++ (“++” means between 3 uM and 10 uM)”.

Q: For `Cc1ccc(Oc2nc(C(C)(C)C)ccc2C(=O)NS(=O)(=O)c2ccc[nH]c2=O)c(C)c1` [Compound 55, 6-tert-butyl-2-(2,4-dimethylphenoxy)-N-[(2-oxo-1H-pyridin-3-yl)sulfonyl]pyridine-3-carboxamide], which EC30 is on record?
A: The EC30 was “++ (“++” means between 3 uM and 10 uM)”.

Q: For `COc1cccc(S(=O)(=O)NC(=O)c2ccc(C(C)(C)C)nc2Oc2c(C)cc(C)cc2C)c1` [Compound 56, 6-tert-butyl-N-(3-methoxyphenyl)sulfonyl-2-(2,4,6-trimethylphenoxy)pyridine-3-carboxamide], which EC30 is on record?
A: Its EC30 is “+++ (“+++” means <3 uM)”.

Q: For `Cc1cccc(C)c1Cn1nc(C(C)(C)C)cc1C(=O)NS(=O)(=O)c1ccccc1F` [Compound 57, 5-tert-butyl-2-[(2,6-dimethylphenyl)methyl]-N-(2-fluorophenyl)sulfonyl-pyrazole-3-carboxamide], which EC30 is on record?
A: Its EC30 is “+++ (“+++” means <3 uM)”.

Q: For `Cc1ccc(-c2nc(C(C)(C)C)ccc2C(=O)NS(=O)(=O)c2cccc(N)n2)cc1` [Compound 58, N-[(6-amino-2-pyridyl)sulfonyl]-6-tert-butyl-2-(p-tolyl)pyridine-3-carboxamide], which EC30 is on record?
A: The EC30 was “++ (“++” means between 3 uM and 10 uM)”.

Q: How did the EC30 turn out when `COc1c(C)cccc1S(=O)(=O)NC(=O)c1cc(C(C)(C)C)nn1Cc1c(C)cccc1C` [Compound 59, 5-tert-butyl-2-[(2,6-dimethylphenyl)methyl]-N-(2-methoxy-3-methyl-phenyl)sulfonyl-pyrazole-3-carboxamide] was run?
A: The EC30 was “+++ (“+++” means <3 uM)”.

Q: For `Cc1c(Cn2nc(C(C)(C)C)cc2C(=O)NS(=O)(=O)c2cccc3[nH]ccc23)cccc1C(F)(F)F` [Compound 60, 5-tert-butyl-N-(1H-indol-4-ylsulfonyl)-2-[[2-methyl-3-(trifluoromethyl)phenyl]methyl]pyrazole-3-carboxamide], which EC30 is on record?
A: The EC30 was “+++ (“+++” means <3 uM)”.

Q: `CCOc1cccc(-c2ccc(C(=O)NS(=O)(=O)c3cccc(N)n3)c(Oc3c(C)cc(C)cc3C)n2)c1` [Compound 61, N-[(6-amino-2-pyridyl)sulfonyl]-6-(3-ethoxyphenyl)-2-(2,4,6-trimethylphenoxy)pyridine-3-carboxamide] was tested. Which EC30 did it give?
A: The EC30 was “+++ (“+++” means <3 uM)”.

Q: With `Cc1cc(C)c(Cn2c(C(=O)NS(=O)(=O)c3cccc(N)c3)cc3ccc(C)cc32)c(C)c1` [Compound 62, N-(3-aminophenyl)sulfonyl-6-methyl-1-[(2,4,6-trimethylphenyl)methyl]indole-2-carboxamide] as the compound, how does the EC30 read?
A: The EC30 was “+++ (“+++” means <3 uM)”.

Q: How did the EC30 turn out when `Cc1cc(C)c(Cc2nn(C(C)(C)C)cc2C(=O)NS(=O)(=O)c2ccccc2)c(C)c1` [Compound 63, N-(benzenesulfonyl)-1-tert-butyl-3-[(2,4,6-trimethylphenyl)methyl]pyrazole-4-carboxamide] was run?
A: The EC30 was “+++ (“+++” means <3 uM)”.

Q: Which EC30 does the source give for `Cc1cc(C)c(Oc2nc(-c3cnc(C(C)C)nc3)ccc2C(=O)NS(=O)(=O)c2cccc(N)n2)c(C)c1` [Compound 64, N-[(6-amino-2-pyridyl)sulfonyl]-6-(2-isopropylpyrimidin-5-yl)-2-(2,4,6-trimethylphenoxy)pyridine-3-carboxamide] here?
A: Its EC30 is “++ (“++” means between 3 uM and 10 uM)”.

Q: For `Cc1cc(C)c(Cn2c(C(=O)NS(=O)(=O)c3ccncc3)cc3cc(Cl)ccc32)c(C)c1` [Compound 65, 5-chloro-N-(4-pyridylsulfonyl)-1-[(2,4,6-trimethylphenyl)methyl]indole-2-carboxamide], which EC30 is on record?
A: Its EC30 is “++ (“++” means between 3 uM and 10 uM)”.

Q: For `COCc1ccc(-c2ccc(C(=O)NS(=O)(=O)c3cccc(N)n3)c(Oc3c(C)cc(C)cc3C)n2)cc1` [Compound 66, N-[(6-amino-2-pyridyl)sulfonyl]-6-[4-(methoxymethyl)phenyl]-2-(2,4,6-trimethylphenoxy)pyridine-3-carboxamide], which EC30 is on record?
A: Its EC30 is “+++ (“+++” means <3 uM)”.

Q: With `Cc1ccc2c(c1)cc(C(=O)NS(=O)(=O)c1cccc(N)n1)n2Cc1c(C)cc(C#N)cc1C` [Compound 67, N-[(6-amino-2-pyridyl)sulfonyl]-1-[(4-cyano-2,6-dimethyl-phenyl)methyl]-5-methyl-indole-2-carboxamide] as the compound, how does the EC30 read?
A: Its EC30 is “++ (“++” means between 3 uM and 10 uM)”.

Q: `Cc1cc(C)c(Oc2nc(C(C)(C)C)ncc2C(=O)NS(=O)(=O)c2cccc(N)c2)c(C)c1` [Compound 68, N-(3-aminophenyl)sulfonyl-2-tert-butyl-4-(2,4,6-trimethylphenoxy)pyrimidine-5-carboxamide] was tested. Which EC30 did it give?
A: Its EC30 is “+++ (“+++” means <3 uM)”.

Q: How did the EC30 turn out when `COCc1cccc(-c2ccc(C(=O)NS(=O)(=O)c3cccc(N)n3)c(Oc3c(C)cc(C)cc3C)n2)c1` [Compound 69, N-[(6-amino-2-pyridyl)sulfonyl]-6-[3-(methoxymethyl)phenyl]-2-(2,4,6-trimethylphenoxy)pyridine-3-carboxamide] was run?
A: Its EC30 is “+++ (“+++” means <3 uM)”.

Q: Which EC30 does the source give for `Cc1cc(C)c(Oc2nc3c(C)cccc3cc2C(=O)NS(=O)(=O)c2cccc(N)n2)c(C)c1` [Compound 70, N-[(6-amino-2-pyridyl)sulfonyl]-8-methyl-2-(2,4,6-trimethylphenoxy)quinoline-3-carboxamide] here?
A: Its EC30 is “+++ (“+++” means <3 uM)”.

Q: For `Cc1cc(C)c(Cn2c(C(=O)NS(=O)(=O)c3cccc(N)c3)nc3ccccc32)c(C)c1` [Compound 71, N-(3-aminophenyl)sulfonyl-1-[(2,4,6-trimethylphenyl)methyl]benzimidazole-2-carboxamide], which EC30 is on record?
A: The EC30 was “+++ (“+++” means <3 uM)”.

Q: Which EC30 does the source give for `CCCOc1cc(-c2ccc(C(=O)NS(=O)(=O)c3ccc[nH]c3=O)c(Oc3c(C)cc(C)cc3C)n2)ccc1Cl` [Compound 72, 6-(4-chloro-3-propoxy-phenyl)-N-[(2-oxo-1H-pyridin-3-yl)sulfonyl]-2-(2,4,6-trimethylphenoxy)pyridine-3-carboxamide] here?
A: The EC30 was “++ (“++” means between 3 uM and 10 uM)”.

Q: Which EC30 does the source give for `Cc1cc(C)c(CN2Cc3ccccc3C2C(=O)NS(=O)(=O)c2cccc(N)n2)c(C)c1` (stereo not drawn) [Compound 73, N-[(6-amino-2-pyridyl)sulfonyl]-2-[(2,4,6-trimethylphenyl)methyl]isoindoline-1-carboxamide] here?
A: The EC30 was “+++ (“+++” means <3 uM)”.

Q: For `Cc1ccc(-c2nc(C(C)(C)C)ccc2C(=O)NS(=O)(=O)c2ccccc2)cc1` [Compound 74, N-(benzenesulfonyl)-6-tert-butyl-2-(p-tolyl)pyridine-3-carboxamide], which EC30 is on record?
A: Its EC30 is “+++ (“+++” means <3 uM)”.

Q: For `COc1cccc(S(=O)(=O)NC(=O)c2ccc(C(C)(C)C)nc2-c2ccc(C)cc2)n1` [Compound 75, 6-tert-butyl-N-[(6-methoxy-2-pyridyl)sulfonyl]-2-(p-tolyl)pyridine-3-carboxamide], which EC30 is on record?
A: The EC30 was “++ (“++” means between 3 uM and 10 uM)”.

Q: `Cc1cccc(C)c1Cn1nc(-c2ccc(N(C)C)cc2)cc1C(=O)NS(=O)(=O)c1ccccc1` [Compound 76, N-(benzenesulfonyl)-5-(4-dimethylaminophenyl)-2-[(2,6-dimethylphenyl)methyl]pyrazole-3-carboxamide] was tested. Which EC30 did it give?
A: Its EC30 is “+++ (“+++” means <3 uM)”.

Q: `Cc1cccc(C)c1Cn1nc(C(C)(C)C)cc1C(=O)NS(=O)(=O)c1cccs1` [Compound 77, 5-tert-butyl-2-[(2,6-dimethylphenyl)methyl]-N-(2-thienylsulfonyl)pyrazole-3-carboxamide] was tested. Which EC30 did it give?
A: Its EC30 is “+++ (“+++” means <3 uM)”.
